Source: the NIST ThermoML archive (doi:10.1016/j.jct.2015.07.024)
± gives the expanded uncertainty stated by the source.

Details: Liquid, Closed cell (Static) method

vapor or sublimation pressure (373 K) | vapor or sublimation pressure (412.5 K) | vapor or sublimation pressure (452.2 K) | vapor or sublimation pressure (412.8 K) | vapor or sublimation pressure (452.3 K) | vapor or sublimation pressure (373.2 K) | vapor or sublimation pressure (413.2 K) | vapor or sublimation pressure (453.2 K) | Compound
45.1 ± 2.1 kPa | 143 ± 5.9 kPa | 361 ± 15 kPa | – | – | – | – | – | CCOC(=O)OCC [diethyl carbonate]
205.7 ± 9 kPa | – | – | 557.1 ± 23 kPa | 1222.7 ± 49 kPa | – | – | – | CCOC(C)=O [ethyl acetate]
– | – | – | – | – | 3.5 ± 0.2 kPa | 18.2 ± 0.8 kPa | 66.1 ± 2.7 kPa | CC(=O)Oc1ccccc1 [phenyl ethanoate]
